Legend:
Type in all cases: cell-based
A-431 skin cancer cells = assay: Cancer cell survival (CellTiter-Glo), A-431; settings: Homo sapiens, A-431 cells, 72 h
Procedure, shortened: (§1)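 Cells seeded at 4×10^3 cells/well, incubated overnight, then treated in triplicate at nine concentrations for 72 h at 37 C, 5% CO2. Viability by CellTiter-Glo luminescence, survival % normalized to untreated and medium controls; IC50 derived.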

MCF7 breast cancer cells = assay: Cancer cell survival (CellTiter-Glo), MCF7; settings: Homo sapiens, 72 h
Procedure, shortened: as §1

T24 bladder cancer cells = assay: Cancer cell survival (CellTiter-Glo), T24; settings: Homo sapiens
Procedure, shortened: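 T24 cells seeded at 4×10^3 cells/well overnight, then exposed 72 h at 37 C, 5% CO2 to nine concentrations in triplicate. Survival measured by CellTiter-Glo luminescence relative to untreated and medium controls; IC50 derived.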

[1] = system: Daudi lymphoma cancer cells; assay: Cancer cell survival (CellTiter-Glo), Daudi; settings: Homo sapiens, 72 h
Procedure, shortened: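 Daudi cells (4×10^3/well) were exposed for 72 h at 37 °C to nine concentrations of compound, added as 10× solutions spanning 1 μM–10 mM (fatty acids) or 100 nM–1 mM (others). CellTiter-Glo luminescence gave % survival versus untreated, medium-blank corrected; IC50 derived.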

[2] = system: PC-3 prostate cancer cells; assay: Cancer cell survival (CellTiter-Glo), PC-3; settings: Homo sapiens, PC-3 cells, 72 h
Procedure, shortened: as §1

[3] = system: HCT 116 colorectal cancer cells; assay: Cancer cell survival (CellTiter-Glo), HCT 116; settings: Homo sapiens, HCT 116 cells, 72 h
Procedure, shortened: as §1

A549 lung cancer cells = assay: Cancer cell survival (CellTiter-Glo), A549; settings: Homo sapiens, 72 h
Procedure, shortened: as §1

AGS stomach cancer cells = assay: Cancer cell survival (CellTiter-Glo), AGS; settings: 72 h
Procedure, shortened: as §1

[4] = 317 μM, read-out: Cell survival at given concentration
[5] = 1 mM, read-out: Cell survival at given concentration
[6] = 3 mM, read-out: Cell survival at given concentration
[7] = 10 mM, read-out: Cell survival at given concentration

## CCC(=O)O [propionate]
A-431 skin cancer cells; 1 μM, Table 9.2, read-out: Cell survival at given concentration
  viability at 1 µM: 99%
A-431 skin cancer cells; 3 μM, Table 9.2, read-out: Cell survival at given concentration
  viability at 3 µM: 101%
A-431 skin cancer cells; 10 μM, Table 9.2, read-out: Cell survival at given concentration
  viability at 10 µM: 103%
A-431 skin cancer cells; 32 μM, Table 9.2, read-out: Cell survival at given concentration
  viability at 32 µM: 102%
A-431 skin cancer cells; 100 μM, Table 9.2, read-out: Cell survival at given concentration
  viability at 100 µM: 104%
A-431 skin cancer cells; [4]
  viability at 317 µM: 99%
A-431 skin cancer cells; [5]
  viability at 1000 µM: 98%
A-431 skin cancer cells; [6]
  viability at 3000 µM: 89%
A-431 skin cancer cells; [7]
  viability at 10000 µM: 70%
A-431 skin cancer cells; Table 9.2
  IC50: > 10 mM
MCF7 breast cancer cells; 1 μM, Table 5.2, read-out: Cell survival at given concentration
  viability at 1 µM: 99%
MCF7 breast cancer cells; 3 μM, Table 5.2, read-out: Cell survival at given concentration
  viability at 3 µM: 97%
MCF7 breast cancer cells; 10 μM, Table 5.2, read-out: Cell survival at given concentration
  viability at 10 µM: 103%
MCF7 breast cancer cells; 32 μM, Table 5.2, read-out: Cell survival at given concentration
  viability at 32 µM: 102%
MCF7 breast cancer cells; 100 μM, Table 5.2, read-out: Cell survival at given concentration
  viability at 100 µM: 102%
MCF7 breast cancer cells; [4]
  viability at 317 µM: 94%
MCF7 breast cancer cells; [5]
  viability at 1000 µM: 91%
MCF7 breast cancer cells; [6]
  viability at 3000 µM: 77%
MCF7 breast cancer cells; [7]
  viability at 10000 µM: 51%
MCF7 breast cancer cells; Table 5.2
  IC50: > 10 mM
T24 bladder cancer cells; T-24, 1 μM, 72 h, Table 3.2, read-out: Cell survival at given concentration
  viability at 1 µM: 99%
T24 bladder cancer cells; T-24, 3 μM, 72 h, Table 3.2, read-out: Cell survival at given concentration
  viability at 3 µM: 97%
T24 bladder cancer cells; T-24, 10 μM, 72 h, Table 3.2, read-out: Cell survival at given concentration
  viability at 10 µM: 97%
T24 bladder cancer cells; T-24, 32 μM, 72 h, Table 3.2, read-out: Cell survival at given concentration
  viability at 32 µM: 99%
T24 bladder cancer cells; T-24, 100 μM, 72 h, Table 3.2, read-out: Cell survival at given concentration
  viability at 100 µM: 97%
T24 bladder cancer cells; T-24, 317 μM, 72 h, read-out: Cell survival at given concentration
  viability at 317 µM: 98%
T24 bladder cancer cells; T-24, 1 mM, 72 h, read-out: Cell survival at given concentration
  viability at 1000 µM: 89%
T24 bladder cancer cells; T-24, 3 mM, 72 h, read-out: Cell survival at given concentration
  viability at 3000 µM: 83%
T24 bladder cancer cells; T-24, 10 mM, 72 h, read-out: Cell survival at given concentration
  viability at 10000 µM: 60%
T24 bladder cancer cells; T-24, 72 h, Table 3.2, read-out: IC50
  IC50: > 10 mM
[1]; 1 μM, Table 4.2, read-out: Cell survival at given concentration
  viability at 1 µM: 97%
[1]; 3 μM, Table 4.2, read-out: Cell survival at given concentration
  viability at 3 µM: 97%
[1]; 10 μM, Table 4.2, read-out: Cell survival at given concentration
  viability at 10 µM: 99%
[1]; 32 μM, Table 4.2, read-out: Cell survival at given concentration
  viability at 32 µM: 99%
[1]; 100 μM, Table 4.2, read-out: Cell survival at given concentration
  viability at 100 µM: 101%
[1]; [4]
  viability at 317 µM: 97%
[1]; [5]
  viability at 1000 µM: 75%
[1]; [6]
  viability at 3000 µM: 47%
[1]; [7]
  viability at 10000 µM: 18%
[1]; Table 4.2
  IC50: 2.73 mM
[2]; 1 μM, Table 8.2, read-out: Cell survival at given concentration
  viability at 1 µM: 100%
[2]; 3 μM, Table 8.2, read-out: Cell survival at given concentration
  viability at 3 µM: 98%
[2]; 10 μM, Table 8.2, read-out: Cell survival at given concentration
  viability at 10 µM: 98%
[2]; 32 μM, Table 8.2, read-out: Cell survival at given concentration
  viability at 32 µM: 101%
[2]; 100 μM, Table 8.2, read-out: Cell survival at given concentration
  viability at 100 µM: 104%
[2]; [4]
  viability at 317 µM: 98%
[2]; [5]
  viability at 1000 µM: 94%
[2]; [6]
  viability at 3000 µM: 84%
[2]; [7]
  viability at 10000 µM: 66%
[2]; Table 8.2
  IC50: > 10 mM
[3]; 1 μM, Table 6.2, read-out: Cell survival at given concentration
  viability at 1 µM: 98%
[3]; 3 μM, Table 6.2, read-out: Cell survival at given concentration
  viability at 3 µM: 102%
[3]; 10 μM, Table 6.2, read-out: Cell survival at given concentration
  viability at 10 µM: 103%
[3]; 32 μM, Table 6.2, read-out: Cell survival at given concentration
  viability at 32 µM: 103%
[3]; 100 μM, Table 6.2, read-out: Cell survival at given concentration
  viability at 100 µM: 106%
[3]; [4]
  viability at 317 µM: 103%
[3]; [5]
  viability at 1000 µM: 98%
[3]; [6]
  viability at 3000 µM: 66%
[3]; [7]
  viability at 10000 µM: 19%
[3]; Table 6.2
  IC50: 4.38 mM
A549 lung cancer cells; 1 μM, Table 7.2, read-out: Cell survival at given concentration
  viability at 1 µM: 98%
A549 lung cancer cells; 3 μM, Table 7.2, read-out: Cell survival at given concentration
  viability at 3 µM: 98%
A549 lung cancer cells; 10 μM, Table 7.2, read-out: Cell survival at given concentration
  viability at 10 µM: 102%
A549 lung cancer cells; 32 μM, Table 7.2, read-out: Cell survival at given concentration
  viability at 32 µM: 103%
A549 lung cancer cells; 100 μM, Table 7.2, read-out: Cell survival at given concentration
  viability at 100 µM: 101%
A549 lung cancer cells; [4]
  viability at 317 µM: 104%
A549 lung cancer cells; [5]
  viability at 1000 µM: 104%
A549 lung cancer cells; [6]
  viability at 3000 µM: 94%
A549 lung cancer cells; [7]
  viability at 10000 µM: 65%
AGS stomach cancer cells; 1 μM, Table 10.2, read-out: Cell survival at given concentration
  viability at 1 µM: 102%
AGS stomach cancer cells; 3 μM, Table 10.2, read-out: Cell survival at given concentration
  viability at 3 µM: 98%
AGS stomach cancer cells; 10 μM, Table 10.2, read-out: Cell survival at given concentration
  viability at 10 µM: 103%
AGS stomach cancer cells; 32 μM, Table 10.2, read-out: Cell survival at given concentration
  viability at 32 µM: 101%
AGS stomach cancer cells; 100 μM, Table 10.2, read-out: Cell survival at given concentration
  viability at 100 µM: 104%
AGS stomach cancer cells; [4]
  viability at 317 µM: 101%
AGS stomach cancer cells; [5]
  viability at 1000 µM: 103%
AGS stomach cancer cells; [6]
  viability at 3000 µM: 96%
AGS stomach cancer cells; [7]
  viability at 10000 µM: 70%
